Measured values as given in BindingDB's records for doi:10.1021/acs.jmedchem.6b01442 (Tsinghua University, 2017).

Assay: Inhibition of HBV capsid assembly infected in human HepG2(2.2.15) cells assessed as inhibition of intracellular viral DNA level after 8 days by agarose gel electrophoresis method

## CC(=O)Nc1ccc(-c2cc(C)c(=O)n(Cc3ccc(Cl)cc3)n2)cc1
  IC50: 1900 nM
